Measured values taken from US8435978B2, “Substituted sulfonamide compounds” (Gruenenthal GmbH, priority 2006, dated 2013).

Columns and labels:
human B1R receptor = molecular target: T1, human B1R receptor (Homo sapiens, UniProt P46663); assay: Functional study on the bradykinin receptor 1 (B1R), FLIPR Ca2+ assay, hB1R cells; format: cell-based; conditions: agonist Lys-Des-Arg9-bradykinin 0.5 nM, % inhibition compared with the maximum achievable inhibition; for inhibition at 10 µM: CHO-K1, test substance 10 μM, read-out: B1R Antagonism, human [10 μM] % Inhibition; for B1R Antagonism, human [10 μM] % Inhibition: test substance 10 μM, hB1R CHO K1 cells
T1 construct: host or cells: CHO K1 cells (Chinese hamster ovary), stably transfected
T1 sequence (P46663 1-353): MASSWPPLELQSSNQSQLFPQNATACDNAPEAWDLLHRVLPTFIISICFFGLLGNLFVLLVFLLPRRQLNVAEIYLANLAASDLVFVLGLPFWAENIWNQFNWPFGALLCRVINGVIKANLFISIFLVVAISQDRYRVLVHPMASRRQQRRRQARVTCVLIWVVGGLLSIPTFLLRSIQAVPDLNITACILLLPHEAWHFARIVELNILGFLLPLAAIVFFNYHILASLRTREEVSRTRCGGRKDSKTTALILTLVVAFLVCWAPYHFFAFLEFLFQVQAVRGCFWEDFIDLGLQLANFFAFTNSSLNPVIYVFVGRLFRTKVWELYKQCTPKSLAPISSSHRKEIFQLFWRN
Protocol: (§1) The agonistic or antagonistic action of substances can be quantified on the bradykinin receptor 1 (B1R) of the species human and rat with ectopically expressing cell lines (CHO K1 cells) and with the aid of a Ca^2+-sensitive dye (Fluo-4) using a fluorescent imaging plate reader (FLIPR). The indication in % activation is based on the Ca^2+ signal after addition of Lys-Des-Arg^9-bradykinin (0.5 nM) or Des-Arg^9-bradykinin (100 nM). Antagonists result in a suppression of the Ca^2+ influx following administration of the agonist. The % inhibition in comparison with the maximum achievable inhibition is indicated.
(§2) The agonistic or antagonistic action of substances can be determined on the bradykinin receptor 1 (B1R) of the species human and rat using the following assay. According to this assay, the Ca^2+ influx through the channel is quantified with the aid of a Ca^2+-sensitive dye (type Fluo-4, Molecular Probes Europe BV, Leiden, Netherlands) using a Fluorescent Imaging Plate Reader (FLIPR, Molecular Devices, Sunnyvale, USA).
(§3) Chinese hamster ovary cells (CHO K1 cells) which have been stably transfected with the human B1R gene (hB1R cells, Euroscreen s.a., Gosselies, Belgium) or with the B1R gene of the rat (rB1R cells, Axxam, Milan, Italy) are used. For functional studies, the cells are plated out on black 96-well plates having a clear base (BD Biosciences, Heidelberg, Germany) in a density of 20,000-25,000 cells/well. The cells are incubated overnight at 37° C. and with 5% CO2 in culture medium (hB1R cells: Nutrient Mixture Ham's F12, Gibco Invitrogen GmbH, Karlsruhe, Germany; rB1R cells: D-MEM/F12, Gibco Invitrogen GmbH, Karlsruhe, Germany), with 10 vol. % FBS (fetal bovine serum, Gibco Invitrogen GmbH, Karlsruhe, Germany). On the following day, the cells are loaded for 60 minutes at 37° C. with 2.13 μM Fluo-4 (Molecular Probes Europe BV, Leiden, Netherlands) in HBSS buffer (Hank's buffered saline solution, Gibco Invitrogen GmbH, Karlsruhe, Germany) […] (Sigma-Aldrich, Taufkirchen, Germany) and 10 mM HEPES (Sigma-Aldrich, Taufkirchen, Germany). The plates are then washed twice with HBSS buffer, and HBSS buffer additionally containing 0.1% BSA (bovine serum albumin; Sigma-Aldrich, Taufkirchen, Germany), 5.6 mM glucose and 0.05% gelatin (Merck KGaA, Darmstadt, Germany) is added to the plates. After incubation for a further 20 minutes at room temperature, the plates are inserted into the FLIPR for Ca^2+ measurement. The Ca^2+-dependent fluorescence is measured before and after the addition of substances (λex=488 nm, λem=540 nm). Quantification is carried out by measuring the highest fluorescence intensity (FC, fluorescence counts) over time.
(§4) The FLIPR protocol consists of 2 substance additions. Test substances (10 μM) are first pipetted onto the cells and the Ca^2+ influx is compared with the control (hB1R: Lys-Des-Arg^9-bradykinin 0.5 nM; rB1R: Des-Arg^9-bradykinin 100 nM). This gives the activation in %, based on the Ca^2+ signal after addition of Lys-Des-Arg^9-bradykinin (0.5 nM) or Des-Arg^9-bradykinin (100 nM).
(§5) After 10 minutes' incubation, 0.5 nM Lys-Des-Arg^9-bradykinin (hB1R) or 100 nM Des-Arg^9-bradykinin (rB1R) are applied, and the influx of Ca^2+ is likewise determined. Antagonists lead to suppression of the Ca^2+ influx. The % inhibition compared with the maximum achievable inhibition is calculated.

B1R receptor of the rat = molecular target: T2, B1R receptor of the rat (Rattus norvegicus, UniProt P97583); assay: Functional study on the bradykinin receptor 1 (B1R), FLIPR Ca2+ assay, rB1R cells; format: cell-based; conditions: agonist Des-Arg9-bradykinin 100 nM, % inhibition compared with the maximum achievable inhibition; for inhibition at 10 µM: CHO-K1, test substance 10 μM, read-out: B1R Antagonism, rat [10 μM] % Inhibition; for B1R Antagonism, rat [10 μM] % Inhibition: test substance 10 μM, rB1R CHO K1 cells
T2 construct: host or cells: CHO K1 cells (Chinese hamster ovary), stably transfected
T2 sequence (P97583 1-337): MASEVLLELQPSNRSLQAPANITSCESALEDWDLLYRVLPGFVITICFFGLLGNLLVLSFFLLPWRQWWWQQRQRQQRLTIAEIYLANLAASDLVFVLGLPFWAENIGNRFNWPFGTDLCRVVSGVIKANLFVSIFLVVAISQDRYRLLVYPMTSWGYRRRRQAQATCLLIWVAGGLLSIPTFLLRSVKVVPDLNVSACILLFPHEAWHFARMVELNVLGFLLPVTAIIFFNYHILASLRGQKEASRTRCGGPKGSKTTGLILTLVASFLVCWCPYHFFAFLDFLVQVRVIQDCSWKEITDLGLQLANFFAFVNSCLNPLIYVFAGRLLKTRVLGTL
Protocol: as §1, §2, §3, §4, §5

With Cc1ccc(C)n1CCN1CCN(C(=O)COCC2CCCCN2S(=O)(=O)c2c(Cl)cccc2Cl)CC1 (stereo not drawn) [Example 280, 2-((1-(2,6-dichlorophenylsulfonyl)piperidin-2-yl)methoxy)-1-(4-(2-(2,5-dimethyl-1H-pyrrol-1-yl)ethyl)piperazin-1-yl)ethanone] the inhibition at 10 µM (human B1R receptor) was 104% and the inhibition at 10 µM (B1R receptor of the rat) was 92%.

COc1cc(C)c(S(=O)(=O)N2CCCCC2COCC(=O)N2CCN(c3cccc(C(F)(F)F)c3)CC2)c(C)c1 (stereo not drawn) [Example 509, 2-((1-(4-methoxy-2,6-dimethylphenylsulfonyl)piperidin-2-yl)methoxy)-1-(4-(3-(trifluoromethyl)phenyl)piperazin-1-yl)ethanone] gave an inhibition at 10 µM (human B1R receptor) of 92.7% and an inhibition at 10 µM (B1R receptor of the rat) of 102%.

COc1cc(C)c(S(=O)(=O)N2CCCC2COCC(=O)Nc2ccc(CCc3nc4ccccc4n3C)cc2)c(C)c1 (stereo not drawn) [Example 470, 2-((1-(4-methoxy-2,6-dimethylphenylsulfonyl)pyrrolidin-2-yl)methoxy)-N-(4-(2-(1-methyl-1H-benzo[d]imidazol-2-yl)ethyl)phenyl)acetamide] showed an inhibition at 10 µM (human B1R receptor) of 92.7% and an inhibition at 10 µM (B1R receptor of the rat) of 98.1%.

For COc1cc(C)c(S(=O)(=O)N2CCCC2COCC(=O)N2CCN(Cc3ccc(C)cc3)CC2)c(C)c1 (stereo not drawn) [Example 353, 2-((1-(4-methoxy-2,6-dimethylphenylsulfonyl)pyrrolidin-2-yl)methoxy)-1-(4-(4-methylbenzyl)piperazin-1-yl)ethanone], the inhibition at 10 µM (human B1R receptor) was 103% and the inhibition at 10 µM (B1R receptor of the rat) was 102%.

In the case of Cc1cc(C)c(S(=O)(=O)N2Cc3ccccc3CC2COCC(=O)NCC2CCCN(Cc3ccccc3)C2)c(C)c1 (stereo not drawn) [Example 41, N-(1-benzyl-piperidin-3-ylmethyl)-2-[2-(2,4,6-trimethyl-phenylsulfonyl)-1,2,3,4-tetrahydro-isoquinolin-3-ylmethoxy]-acetamide], the inhibition at 10 µM (human B1R receptor) is reported as 72.6% and the inhibition at 10 µM (B1R receptor of the rat) is reported as 16.4%.

For O=C(COCC1CCCCN1S(=O)(=O)c1ccc(Cl)c(Cl)c1)N1CCC(N2CCCC2)CC1 (stereo not drawn) [Example 26, 2-[1-(3,4-dichloro-phenylsulfonyl)-piperidin-2-ylmethoxy]-1-(4-pyrrolidin-1-yl-piperidin-1-yl)-ethanone], the inhibition at 10 µM (human B1R receptor) was 86.8% and the inhibition at 10 µM (B1R receptor of the rat) was 4.56%.

For O=C(COCC1CCCCN1S(=O)(=O)c1cccc2ccccc12)N1CCC(N2CCCCC2)CC1 (stereo not drawn) [Example 235], the “B1R Antagonism, human [10 μM] % Inhibition” value (human B1R receptor) was 102.3% and the “B1R Antagonism, rat [10 μM] % Inhibition” value (B1R receptor of the rat) was 83.46%.

Molecule O=C(COCC1CCCCN1S(=O)(=O)c1c(Cl)cccc1Cl)N1CCN(c2nc3ccc(Cl)cc3s2)CC1 (stereo not drawn) [Example 554, 1-(4-(6-chlorobenzo[d]thiazol-2-yl)piperazin-1-yl)-2-((1-(2,6-dichlorophenylsulfonyl)piperidin-2-yl)methoxy)ethanone] has an inhibition at 10 µM (human B1R receptor) of 25.2% and an inhibition at 10 µM (B1R receptor of the rat) of 102%.

COc1cc(C)c(S(=O)(=O)N2CCCCC2COCC(=O)N2CCN(CCc3ccccc3)CC2)c(C)c1 (stereo not drawn) [Example 373, 2-((1-(4-methoxy-2,6-dimethylphenylsulfonyl)piperidin-2-yl)methoxy)-1-(4-phenethylpiperazin-1-yl)ethanone] gave an inhibition at 10 µM (human B1R receptor) of 104% and an inhibition at 10 µM (B1R receptor of the rat) of 98.8%.

For O=C(COCC1CCCCN1S(=O)(=O)c1c(Cl)cccc1Cl)N1CCN(c2ccccc2F)CC1 (stereo not drawn) [Example 442, 2-((1-(2,6-dichlorophenylsulfonyl)piperidin-2-yl)methoxy)-1-(4-(2-fluorophenyl)piperazin-1-yl)ethanone], the inhibition at 10 µM (human B1R receptor) was 102% and the inhibition at 10 µM (B1R receptor of the rat) was 98.6%.

In the case of COc1cc(C)c(S(=O)(=O)N2CCCCC2COCC(=O)N2CCN(c3ccc(C)c(C)c3)CC2)c(C)c1 (stereo not drawn) [Example 512, 1-(4-(3,4-dimethylphenyl)piperazin-1-yl)-2-((1-(4-methoxy-2,6-dimethylphenylsulfonyl)piperidin-2-yl)methoxy)ethanone], the inhibition at 10 µM (human B1R receptor) is reported as 93% and the inhibition at 10 µM (B1R receptor of the rat) is reported as 102%.

With O=C(COCC1Cc2ccccc2CN1S(=O)(=O)c1ccc(Cl)cc1Cl)N1CCC(N2CCCC2)CC1 (stereo not drawn) [Example 17] the “B1R Antagonism, human [10 μM] % Inhibition” value (human B1R receptor) was 95.53% and the “B1R Antagonism, rat [10 μM] % Inhibition” value (B1R receptor of the rat) was 96.94%.

For COc1ccc(S(=O)(=O)N2Cc3ccccc3C[C@H]2COCC(=O)N2CCC(CCN3CCCC3)CC2)cc1 [Example 182, (S)-2-((2-(4-methoxyphenylsulfonyl)-1,2,3,4-tetrahydroisoquinolin-3-yl)methoxy)-1-(4-(2-(pyrrolidin-1-yl)ethyl)piperidin-1-yl)ethanone], the inhibition at 10 µM (human B1R receptor) was 91.1% and the inhibition at 10 µM (B1R receptor of the rat) was 99.7%.

Molecule O=C(COCC1CCCCN1S(=O)(=O)c1c(Cl)cccc1Cl)N1CCN(c2ccccn2)CC1 (stereo not drawn) [Example 316, 2-((1-(2,6-dichlorophenylsulfonyl)piperidin-2-yl)methoxy)-1-(4-(pyridin-2-yl)piperazin-1-yl)ethanone] has an inhibition at 10 µM (human B1R receptor) of 82.7% and an inhibition at 10 µM (B1R receptor of the rat) of 98.2%.

COc1ccc(S(=O)(=O)N2Cc3ccccc3C[C@H]2COCC(=O)N2CCN(C3CCN(C)CC3)CC2)cc1 [Example 142, (S)-2-((2-(4-methoxyphenylsulfonyl)-1,2,3,4-tetrahydroisoquinolin-3-yl)methoxy)-1-(4-(1-methylpiperidin-4-yl)piperazin-1-yl)ethanone] was tested, and the inhibition at 10 µM (human B1R receptor) was 89.9% and the inhibition at 10 µM (B1R receptor of the rat) was 63%.

CN1CCCN(C(=O)COCC2CCCCN2S(=O)(=O)c2c(Cl)cccc2Cl)CC1 (stereo not drawn) [Example 483, 2-((1-(2,6-dichlorophenylsulfonyl)piperidin-2-yl)methoxy)-1-(4-methyl-1,4-diazepan-1-yl)ethanone] showed an inhibition at 10 µM (human B1R receptor) of 103% and an inhibition at 10 µM (B1R receptor of the rat) of 104%.

Work on COc1cc(C)c(S(=O)(=O)N2CCCC2COCC(=O)N2CCN(C)CC2c2ccccc2)c(C)c1 (stereo not drawn) [Example 445, 2-((1-(4-methoxy-2,6-dimethylphenylsulfonyl)pyrrolidin-2-yl)methoxy)-1-(4-methyl-2-phenylpiperazin-1-yl)ethanone] yielded an inhibition at 10 µM (human B1R receptor) of 102% and an inhibition at 10 µM (B1R receptor of the rat) of 98.6%.

In the case of COc1cc(C)c(S(=O)(=O)N2CCCCC2COCC(=O)Nc2ccncn2)c(C)c1 (stereo not drawn) [Example 372, 2-((1-(4-methoxy-2,6-dimethylphenylsulfonyl)piperidin-2-yl)methoxy)-N-(pyrimidin-4-yl)acetamide], the inhibition at 10 µM (human B1R receptor) is reported as -2.76% and the inhibition at 10 µM (B1R receptor of the rat) is reported as 83.8%.
